Measurements as given in publication PMC7914897, “Cytotoxic Potential of a-Azepano- and 3-Amino-3,4-SeCo-Triterpenoids” (International Journal of Molecular Sciences, 2021).

How the values were obtained:
[1] = system: A2780 (ovarian carcinoma); test: SRB cytotoxicity assay, 72 h; format: cell-based, human; details: Homo sapiens; A2780, 72 h, cut-off 30 µM; read-out: EC50
Outline: (§1)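 Seed, 24 h; compound 0–30 µM serial dilutions, 72 h (DMSO ≤0.5%); fix 10% TCA, 4 °C; stain 0.4% SRB ~20 min; 1% AcOH wash; solubilise 10 mM Tris; A570. EC50 vs untreated.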

[2] = system: A375 (malignant melanoma); test: SRB cytotoxicity assay, 72 h; format: cell-based, human; details: Homo sapiens, A-375, 72 h, A375, 72 h, cut-off 30 µM; read-out: EC50
Outline: as §1

[3] = system: FaDu (hypopharyngeal carcinoma); test: SRB cytotoxicity assay, 72 h; format: cell-based, human; details: Homo sapiens, cut-off 30 µM, read-out: EC50
Outline: as §1

[4] = system: HT29 (colorectal carcinoma); test: SRB cytotoxicity assay, 72 h; format: cell-based, human; details: Homo sapiens, HT-29; HT29, 72 h, cut-off 30 µM; read-out: EC50
Outline: as §1

MCF-7 (breast carcinoma) = test: SRB cytotoxicity assay, 72 h; format: cell-based, human; details: Homo sapiens, MCF7; MCF-7, 72 h, cut-off 30 µM; read-out: EC50
Outline: as §1

LOX IMVI (Melanoma) = test: NCI-60 screen (SRB, 48 h); format: cell-based; details: Homo sapiens; for IC (TGI) / activity at 10 µM: 48 h; for activity at 10 µM: 1 dose 10 µM, read-out: Growth % of the Most Sensitive Cell Lines; for GI50: read-out: GI50
NSC lung cancer subpanel = test: NCI-60 screen, subpanel; details: Homo sapiens; for IC (TGI): 48 h, read-out: TGI MG_MID; for GI50: read-out: GI50 MG_MID; for CC50: read-out: LC50 MG_MID
CNS cancer subpanel = test: NCI-60 screen, subpanel; details: Homo sapiens; for IC (TGI): 48 h, read-out: TGI MG_MID; for GI50: read-out: GI50 MG_MID; for CC50: read-out: LC50 MG_MID
Ovarian Cancer subpanel = test: NCI-60 screen, subpanel; details: Homo sapiens; for IC (TGI): 48 h, read-out: TGI MG_MID; for GI50: read-out: GI50 MG_MID; for CC50: read-out: LC50 MG_MID
Breast cancer subpanel = test: NCI-60 screen, subpanel; details: Homo sapiens; for IC (TGI): 48 h, read-out: TGI MG_MID; for GI50: read-out: GI50 MG_MID; for CC50: read-out: LC50 MG_MID
[5] = system: A549/ATCC (NSC lung cancer); test: NCI-60 screen (SRB, 48 h); details: Homo sapiens; for GI50: A549; for IC (TGI): A549, 48 h, read-out: TGI
[6] = system: NCI-H23 (NSC lung cancer); test: NCI-60 screen (SRB, 48 h); details: Homo sapiens; for GI50: NCI-H23; for IC (TGI): NCI-H23, 48 h, read-out: TGI
[7] = system: NCI-H460 (NSC lung cancer); test: NCI-60 screen (SRB, 48 h); details: Homo sapiens; for GI50: NCI-H460; for IC (TGI): NCI-H460, 48 h, read-out: TGI
[8] = system: NCI-H522 (NSC lung cancer); test: NCI-60 screen (SRB, 48 h); details: Homo sapiens; for GI50: NCI-H522; for IC (TGI): NCI-H522, 48 h, read-out: TGI; for CC50: NCI-H522, read-out: LC50
SF-268 (CNS cancer) = test: NCI-60 screen (SRB, 48 h); details: Homo sapiens; for GI50: SF-268; for IC (TGI): SF-268, 48 h, read-out: TGI
SF-295 (CNS cancer) = test: NCI-60 screen (SRB, 48 h); details: Homo sapiens; for GI50: SF-295; for IC (TGI): SF-295, 48 h, read-out: TGI; for CC50: SF-295, read-out: LC50
SF-539 (CNS cancer) = test: NCI-60 screen (SRB, 48 h); details: Homo sapiens; for GI50: SF-539; for IC (TGI): SF-539, 48 h, read-out: TGI
U251 (CNS cancer) = test: NCI-60 screen (SRB, 48 h); details: for GI50 / IC (TGI) / CC50: Homo sapiens; for GI50: U-251; for IC (TGI): U-251, 48 h, read-out: TGI; for CC50: U-251, read-out: LC50
M14 (Melanoma) = test: NCI-60 screen (SRB, 48 h); details: Homo sapiens; for GI50: M14; for IC (TGI): M14, 48 h, read-out: TGI
SK-MEL-2 (Melanoma) = test: NCI-60 screen (SRB, 48 h); details: Homo sapiens; for GI50: SK-MEL-2; for IC (TGI): SK-MEL-2, 48 h, read-out: TGI; for CC50: SK-MEL-2, read-out: LC50
SK-MEL-28 (Melanoma) = test: NCI-60 screen (SRB, 48 h); details: Homo sapiens; for GI50: SK-MEL-28; for IC (TGI): SK-MEL-28, 48 h, read-out: TGI; for CC50: SK-MEL-28, read-out: LC50
OVCAR-5 (Ovarian cancer) = test: NCI-60 screen (SRB, 48 h); details: Homo sapiens; for GI50: OVCAR-5; for IC (TGI): OVCAR-5, 48 h, read-out: TGI
CAKI-1 (Renal cancer) = test: NCI-60 screen (SRB, 48 h); details: for GI50 / IC (TGI) / CC50: Homo sapiens; for GI50: CAKI-1; for IC (TGI): CAKI-1, 48 h, read-out: TGI; for CC50: CAKI-1, read-out: LC50
RXF 393 (Renal cancer) = test: NCI-60 screen (SRB, 48 h); details: for GI50 / IC (TGI) / CC50: Homo sapiens; for GI50: RXF 393; for IC (TGI): RXF 393, 48 h, read-out: TGI; for CC50: RXF 393, read-out: LC50

SMILES: Cc1ccc(S(=O)(=O)OC[C@@]2(C)CC[C@]3(C)CC[C@]4(C)C(=C3C2)C=C[C@@H]2[C@@]3(C)CCCNC(C)(C)[C@@H]3CC[C@]24C)cc1 [Compound 16]
- EC50 [1]: 2.38 ± 0.1 µM
- EC50 [2]: 1.91 ± 0.1 µM
- EC50 [3]: 1.52 ± 0.1 µM
- EC50 [4]: 1.54 ± 0.1 µM
- EC50 (MCF-7 (breast carcinoma)): 1.54 ± 0.1 µM
- IC (TGI) (LOX IMVI (Melanoma)): 3.02 µM
- activity at 10 µM (LOX IMVI (Melanoma)): -99.2%
- GI50 (LOX IMVI (Melanoma)): 1.63 µM
- IC (TGI) (NSC lung cancer subpanel): 3.36 µM
- GI50 (NSC lung cancer subpanel): 1.72 µM
- CC50 (NSC lung cancer subpanel): 6.23 µM
- IC (TGI) (CNS cancer subpanel): 3.4 µM
- GI50 (CNS cancer subpanel): 1.77 µM
- CC50 (CNS cancer subpanel): 6.49 µM
- IC (TGI) (Ovarian Cancer subpanel): 3.68 µM
- GI50 (Ovarian Cancer subpanel): 1.86 µM
- CC50 (Ovarian Cancer subpanel): 29.4 µM
- IC (TGI) (Breast cancer subpanel): 3.5 µM
- GI50 (Breast cancer subpanel): 1.67 µM
- CC50 (Breast cancer subpanel): 7.57 µM
- GI50 [5]: 1.86 µM
- IC (TGI) [5]: 3.62 µM
- GI50 [6]: 1.82 µM
- IC (TGI) [6]: 3.42 µM
- CC50 ([6]; NCI-H23, read-out: LC50): 6.41 µM
- GI50 [7]: 1.85 µM
- IC (TGI) [7]: 3.5 µM
- GI50 [8]: 1.7 µM
- IC (TGI) [8]: 3.36 µM
- CC50 [8]: 6.64 µM
- GI50 (SF-268 (CNS cancer)): 1.95 µM
- IC (TGI) (SF-268 (CNS cancer)): 4.12 µM
- CC50 (SF-268 (CNS cancer); SF-268, read-out: LC50): 8.68 µM
- GI50 (SF-295 (CNS cancer)): 1.78 µM
- IC (TGI) (SF-295 (CNS cancer)): 3.29 µM
- CC50 (SF-295 (CNS cancer)): 6.08 µM
- GI50 (SF-539 (CNS cancer)): 1.71 µM
- IC (TGI) (SF-539 (CNS cancer)): 3.11 µM
- CC50 (SF-539 (CNS cancer); SF-539, read-out: LC50): 5.66 µM
- GI50 (U251 (CNS cancer)): 1.66 µM
- IC (TGI) (U251 (CNS cancer)): 3.17 µM
- CC50 (U251 (CNS cancer)): 6.07 µM
- Growth % of the Most Sensitive Cell Lines (U251 (CNS cancer); U251, 1 dose 10 µM): −95.86%
- GI50 (M14 (Melanoma)): 1.8 µM
- IC (TGI) (M14 (Melanoma)): 3.62 µM
- GI50 (SK-MEL-2 (Melanoma)): 1.88 µM
- IC (TGI) (SK-MEL-2 (Melanoma)): 3.52 µM
- CC50 (SK-MEL-2 (Melanoma)): 6.58 µM
- GI50 (SK-MEL-28 (Melanoma)): 1.77 µM
- IC (TGI) (SK-MEL-28 (Melanoma)): 3.26 µM
- CC50 (SK-MEL-28 (Melanoma)): 5.97 µM
- GI50 (OVCAR-5 (Ovarian cancer)): 1.77 µM
- IC (TGI) (OVCAR-5 (Ovarian cancer)): 3.21 µM
- CC50 (OVCAR-5 (Ovarian cancer); OVCAR-5, read-out: LC50): 5.81 µM
- GI50 (CAKI-1 (Renal cancer)): 1.61 µM
- IC (TGI) (CAKI-1 (Renal cancer)): 3.06 µM
- CC50 (CAKI-1 (Renal cancer)): 5.81 µM
- GI50 (RXF 393 (Renal cancer)): 1.35 µM
- IC (TGI) (RXF 393 (Renal cancer)): 2.86 µM
- CC50 (RXF 393 (Renal cancer)): 6.05 µM

SMILES: C=C(C)[C@@H]1CCC=C2CC[C@]3(C)[C@H](CC[C@@H]4[C@@]5(C)CCCNC(C)(C)[C@@H]5CC[C@]43C)[C@H]21 [Compound 8]
- EC50 [1]: 1.88 ± 0.2 µM
- EC50 [2]: 1.78 ± 0.1 µM
- EC50 [3]: 1.75 ± 0.2 µM
- EC50 [4]: 1.3 ± 0.2 µM
- EC50 (MCF-7 (breast carcinoma)): 1.41 ± 0.1 µM
- IC (TGI) (LOX IMVI (Melanoma)): 3.16 µM
- activity at 10 µM (LOX IMVI (Melanoma)): -99.5%
- GI50 (LOX IMVI (Melanoma)): 1.67 µM
- IC (TGI) (NSC lung cancer subpanel): 3.3 µM
- GI50 (NSC lung cancer subpanel): 1.73 µM
- CC50 (NSC lung cancer subpanel): 6.18 µM
- IC (TGI) (CNS cancer subpanel): 3.31 µM
- GI50 (CNS cancer subpanel): 1.79 µM
- CC50 (CNS cancer subpanel): 5.97 µM
- IC (TGI) (Ovarian Cancer subpanel): 3.5 µM
- GI50 (Ovarian Cancer subpanel): 1.84 µM
- CC50 (Ovarian Cancer subpanel): 6.78 µM
- IC (TGI) (Breast cancer subpanel): 3.47 µM
- GI50 (Breast cancer subpanel): 1.71 µM
- CC50 (Breast cancer subpanel): 8.38 µM
- GI50 [5]: 2.02 µM
- IC (TGI) [5]: 3.73 µM
- CC50 ([5]; A549, read-out: LC50): 6.89 µM
- GI50 [6]: 1.83 µM
- IC (TGI) [6]: 3.4 µM
- GI50 [7]: 1.22 µM
- IC (TGI) [7]: 2.81 µM
- GI50 [8]: 1.93 µM
- IC (TGI) [8]: 3.5 µM
- CC50 [8]: 6.35 µM
- GI50 (SF-268 (CNS cancer)): 1.91 µM
- IC (TGI) (SF-268 (CNS cancer)): 3.64 µM
- GI50 (SF-295 (CNS cancer)): 1.81 µM
- IC (TGI) (SF-295 (CNS cancer)): 3.26 µM
- CC50 (SF-295 (CNS cancer)): 5.88 µM
- GI50 (SF-539 (CNS cancer)): 1.52 µM
- IC (TGI) (SF-539 (CNS cancer)): 2.99 µM
- GI50 (U251 (CNS cancer)): 1.76 µM
- IC (TGI) (U251 (CNS cancer)): 3.26 µM
- CC50 (U251 (CNS cancer)): 6.07 µM
- GI50 (M14 (Melanoma)): 1.89 µM
- IC (TGI) (M14 (Melanoma)): 3.38 µM
- GI50 (SK-MEL-2 (Melanoma)): 2.01 µM
- IC (TGI) (SK-MEL-2 (Melanoma)): 3.69 µM
- CC50 (SK-MEL-2 (Melanoma)): 6.8 µM
- GI50 (SK-MEL-28 (Melanoma)): 1.81 µM
- IC (TGI) (SK-MEL-28 (Melanoma)): 3.35 µM
- CC50 (SK-MEL-28 (Melanoma)): 6.18 µM
- GI50 (OVCAR-5 (Ovarian cancer)): 1.75 µM
- IC (TGI) (OVCAR-5 (Ovarian cancer)): 3.32 µM
- Growth % of the Most Sensitive Cell Lines (CAKI-1 (Renal cancer); CAKI-1, 1 dose 10 µM): −92.49%
- GI50 (CAKI-1 (Renal cancer)): 1.81 µM
- IC (TGI) (CAKI-1 (Renal cancer)): 3.22 µM
- CC50 (CAKI-1 (Renal cancer)): 5.73 µM
- GI50 (RXF 393 (Renal cancer)): 1.74 µM
- IC (TGI) (RXF 393 (Renal cancer)): 3.32 µM
- CC50 (RXF 393 (Renal cancer)): 6.33 µM
- Growth % of the Most Sensitive Cell Lines (RXF 393 (Renal cancer); RXF 393, 1 dose 10 µM): −91.86%
